# Literature values, collected in US6872562B2, “Herbicide resistant dinitrogen fixing bacteria and method of use” (priority 2001, dated 2005).
# Test system: soybean
# Details: in vivo; cited from earlier work
smiles,measurement,value
CCCN(CCC)c1c([N+](=O)[O-])cc(C(F)(F)F)cc1[N+](=O)[O-] [Trifuralin],Effect on nodulation and N2 fixation,decreases nodulation and N2 fixation
